Test results taken from PubChem BioAssay AID1645866 (Buhrlage Lab, Dana-Farber Cancer Institute and Novartis …, 2021).
Calls of active or inactive are those of the source.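 The calls were made as follows: active = in confirmatory dose-response testing, peak deubiquitinase inhibition of 30% or more; inactive = the rest.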

Each compound was assayed against Ubiquitin carboxyl-terminal hydrolase 28 (Homo sapiens) (UniProt Q96RU2) (assay: Concentration-response biochemical assay confirming initial hits as inhibitors of ubiquitin-specific protease 28 (AID 1645866)). Conditions: purified USP28, ubiquitin-rhodamine fluorescence, 30 min.
Sequence of Ubiquitin carboxyl-terminal hydrolase 28 (Homo sapiens) (Q96RU2 whole entry, looked up): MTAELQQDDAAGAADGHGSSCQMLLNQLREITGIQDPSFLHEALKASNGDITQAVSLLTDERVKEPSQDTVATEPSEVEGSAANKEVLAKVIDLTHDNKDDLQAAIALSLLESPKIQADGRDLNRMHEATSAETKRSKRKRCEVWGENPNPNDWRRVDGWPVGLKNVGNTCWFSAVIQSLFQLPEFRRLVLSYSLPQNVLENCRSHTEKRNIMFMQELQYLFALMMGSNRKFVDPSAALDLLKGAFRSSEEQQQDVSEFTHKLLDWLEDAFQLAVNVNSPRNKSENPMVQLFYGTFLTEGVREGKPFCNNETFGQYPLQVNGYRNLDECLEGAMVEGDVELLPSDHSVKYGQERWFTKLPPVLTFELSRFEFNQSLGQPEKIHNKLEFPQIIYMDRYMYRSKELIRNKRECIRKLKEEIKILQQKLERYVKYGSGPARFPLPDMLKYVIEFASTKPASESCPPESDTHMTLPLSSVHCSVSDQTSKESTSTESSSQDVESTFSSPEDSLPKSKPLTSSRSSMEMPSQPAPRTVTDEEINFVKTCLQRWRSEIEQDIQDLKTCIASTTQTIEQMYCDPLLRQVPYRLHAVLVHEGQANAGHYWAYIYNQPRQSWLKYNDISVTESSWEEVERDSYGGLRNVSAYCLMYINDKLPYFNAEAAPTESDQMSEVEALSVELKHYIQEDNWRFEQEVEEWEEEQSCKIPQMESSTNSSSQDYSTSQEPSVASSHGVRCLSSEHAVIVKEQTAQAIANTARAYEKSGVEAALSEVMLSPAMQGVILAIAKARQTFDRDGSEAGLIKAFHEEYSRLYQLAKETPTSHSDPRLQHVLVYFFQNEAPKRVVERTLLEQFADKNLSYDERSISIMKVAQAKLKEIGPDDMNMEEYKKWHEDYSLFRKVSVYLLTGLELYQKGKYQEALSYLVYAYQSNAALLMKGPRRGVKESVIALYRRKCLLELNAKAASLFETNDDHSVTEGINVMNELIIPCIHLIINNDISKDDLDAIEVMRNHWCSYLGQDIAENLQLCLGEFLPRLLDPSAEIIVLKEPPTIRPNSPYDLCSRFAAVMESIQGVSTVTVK

IC50 | Structure (SMILES)
19.3 µM | CC(C)C(=O)Nc1ccc(N2CCN(Cc3ccc(F)cc3)C2=O)nc1
21.6 µM | O=C(Cn1cncc(C(=O)NC2CCCC2)c1=O)Nc1cccc(F)c1
18.1 µM | CCCCNC(=O)C1Sc2nnc(-c3ccccc3)n2NC1c1ccccc1 (stereo not given)
19.5 µM | CC1=C[C@@H](C)CC[C@H]2O[C@@H](C3=C(O)C(=O)C(C)=C4O[C@](O)(C=C43)[C@@H](C)C[C@H](C)C1)[C@H](C)[C@@H](O)[C@H]2C
> 50 µM (inactive) | O=c1ccc(-c2noc(-c3ccc4cc[nH]c4c3)n2)c[nH]1
30.8 µM | Nc1c(-c2nc(-c3ccc4c(c3)OCO4)cs2)nnn1-c1ccccc1
27.3 µM | Cc1nc(-c2cccc(NC(=O)C3CCN(c4ccccc4)C3=O)c2)no1 (stereo not given)
37.6 µM | COc1ccc(C(=O)Nc2ccccc2C(=O)NCc2ccccc2)cc1
4.21 µM | Cc1ccc2c(c1)c(=O)c(C(=O)c1ccccc1)cn2CC(=O)Nc1ccc2c(c1)OCCO2
29.5 µM | Cc1c(C(=O)NCc2cccc(Br)c2)oc2c1-c1[nH]ncc1CC2
0.305 µM | Cc1ccc(-n2c(-c3ccccc3)cn3c4c(=O)[nH]c(=O)n(C)c4nc23)cc1Cl
20.1 µM | C=C1CCC2[C@](C)(CCC[C@]2(C)C(=O)OC)[C@H]1CCc1ccoc1C[N+](C)(C)Cc1ccccc1 (stereo not given in full)
4.72 µM | CC(=O)c1ccccc1NC(=O)COc1ccc(-c2ccc(C#N)cc2)cc1
46.7 µM | CC(=O)N1CCc2cc(CNC(=O)Nc3cc(C)ccc3C)ccc21
> 50 µM (inactive) | Cc1nn(CC(=O)NCc2ccccc2F)c2ccccc12
1.31 µM | Cc1cccc(NC(=O)Cn2cnc(-c3noc(-c4ccccc4)n3)c2)c1C
> 50 µM (inactive) | Cc1nnc(-c2nnc(NCc3ccc(Cl)cc3)c3ccccc23)o1
12 µM | Cc1ccc(Cl)c(-n2nnc(C(=O)Nc3ccccc3C#N)c2C)c1
26.6 µM | CCNc1oc(-c2ccc(S(=O)(=O)N3CCCCC3)cc2)nc1C#N
23.7 µM | Fc1cccc(-n2cc(-c3noc(-c4ccccn4)n3)nn2)c1
22.6 µM | O=C(/C=C/c1cnc2ccccc2c1)NCc1ccccc1
22 µM | COc1ccc(C)cc1NC(=O)CSc1nc(C)nc2c1oc1ccccc12
14.6 µM | COc1cccc(NC(=O)CSc2nnc(-c3cc4cccc(OC)c4o3)n2C)c1
8.65 µM | COc1ccc(OC)c(NC(=O)CSc2nc(C)nc3c2oc2ccccc23)c1
29.1 µM | O=C(Cc1cc(-c2ccccc2)on1)NCc1c(F)cccc1F

IC50 | Structure (SMILES)
> 50 µM (inactive) | COc1ccc(/C=C\c2nccc3c2[nH]c2ccccc23)cc1
3.82 µM | Cc1noc(C)c1S(=O)(=O)Nc1ccc(C(=O)Nc2ccc3c(c2)OCCO3)cc1
3.01 µM | COc1cc(NC(=O)Cc2ccccc2)ccc1NC(=O)c1cc2ccccc2o1
3.4 µM | COc1cc(Cl)c(C)cc1NC(=O)Cn1c(=O)n(CC(=O)NCc2ccco2)c(=O)c2ccccc21
24.9 µM | Fc1cccc(Cn2cc(-c3noc(-c4ccncc4)n3)nn2)c1
20.1 µM | COc1ccc(C(=O)C2CC(=O)Nc3c2c(C)nn3-c2ccc(Br)cc2)cc1 (stereo not given)
36.7 µM | Cc1nc(-c2ccc(C(=O)NCc3ccc(F)cc3)cc2)cs1
20.3 µM | COc1cccc(NC(=O)C2CCN(C(=O)c3cc(-c4cccnc4)n[nH]3)CC2)c1
35.1 µM | O=C(/C=C/c1ccc(F)cc1)N1CCc2ccccc2C1
5.47 µM | COc1ccccc1-c1nc(-c2nnn(Cc3ccc(C)cc3)c2C)no1
> 50 µM (inactive) | CN1CCN(c2ccc3nc(-c4ccccc4)c(-c4ccccc4)nc3c2)CC1
> 50 µM (inactive) | CCN1CCCC1CN(Cc1cc2cc(OC)ccc2[nH]c1=O)C(=O)NCc1ccccc1 (stereo not given)
11.1 µM | Cc1nnc(NC(=O)C2CCN(c3ccc(S(N)(=O)=O)cc3[N+](=O)[O-])CC2)o1
0.0563 µM | O=c1ccc(-c2noc(Cc3cccc(Cl)c3)n2)c[nH]1
3.72 µM | Cc1cccc(C(=O)Nc2cccc(SC(C(=O)Nc3ccc(O)c(C(=O)O)c3)c3ccccc3)c2)c1 (stereo not given)
21.7 µM | N#Cc1cccc(S(=O)(=O)N2CCc3nc4ccccc4n3CC2)c1
21.7 µM | O=C(NCc1ccc(Br)cc1)c1ccc(-c2cccnc2)nc1
15.2 µM | O=c1c2cnc(N3CCOCC3)nc2ccn1CCc1ccccc1
18 µM | O=C(CCn1c(=O)c2sccc2n(CC(=O)OCc2ccccc2)c1=O)NCc1ccc2c(c1)OCO2
23.6 µM | Cc1ccc(NCc2cc3c(C(C)(C)C)nn(-c4ccc(Cl)cc4)c3[nH]c2=O)cc1
> 50 µM (inactive) | Cc1ccc2[nH]c(=O)c(CN(Cc3cccnc3)C(=O)c3cccc(Cl)c3)cc2c1
1.01 µM | CCCCOc1ccc(C(=O)Nc2ccc3c(c2)CCC(=O)N3CCC)cc1
3.22 µM | O=C(NCc1ccccc1Cl)C1CCCN(c2nc3ccsc3c(=O)s2)C1 (stereo not given)
> 50 µM (inactive) | COc1cc(Cl)ccc1Oc1ncnc2sc(C)c(C)c12
> 50 µM (inactive) | COc1ccc2nc(Nc3nc(-c4cnc(N5CCOCC5)nc4C)cc(=O)[nH]3)nc(C)c2c1

IC50 | Structure (SMILES)
27.2 µM | Cc1ccc(-n2nnc(C(=O)NC3CCCCC3)c2N)cc1
27.5 µM | CC(C)OC(=O)c1cc2c(ccn2-c2ccc(F)cc2)n1CC(=O)NC1CCCCC1
21.3 µM | CC1(C(=O)NC2CCCC2)Cn2c(cc3ccccc32)C(=O)N1c1ccc(F)cc1 (stereo not given)
22.8 µM | Cc1nn(-c2ccc(F)cc2)cc1-c1noc(C(=O)NCc2ccccn2)n1
27.4 µM | Fc1ccc(Cn2ccc(-c3cnc(-c4ccccc4)s3)n2)cc1
3.38 µM | CC(=O)Nc1ccc(O)c(-c2nc3cc(C)ccc3o2)c1
> 50 µM (inactive) | Cc1sc2nc(CN3CCCC3)nc(NCCc3ccc(Cl)cc3)c2c1C
19.7 µM | Nc1ncnc(SCc2ccc(Cl)cc2)n1
5.4 µM | CCOC(=O)c1ccc(NC(=O)COc2cccc3c2CCN(CC)C3=O)cc1
> 50 µM (inactive) | CC(C)(C)C(=O)NC(c1ccccc1)c1nnc(N2CCOCC2)o1 (stereo not given)
12.2 µM | COc1ccc2c(c1)CCc1c-2n[nH]c1C(=O)Nc1cc(C)on1
14.5 µM | CCc1ccc(-n2c(=O)c3ccccc3n(CC(=O)NCCC3=CCCCC3)c2=O)cc1
1.52 µM | CN(Cc1ccccc1)S(=O)(=O)c1ccc2[nH]cc(C(=O)NCc3cccs3)c(=O)c2c1
> 50 µM (inactive) | O=C(NCCCN1CCc2ccccc2C1)c1cc2c(s1)CS(=O)(=O)C2
22.4 µM | O=C(COc1ccc(Cl)cc1)Nc1noc(-c2ccccc2)n1
10.5 µM | CCCCN1CC(C(=O)Nc2ccc(C(=O)Nc3ccc(Cl)cc3)cc2)CC1=O (stereo not given)
10.1 µM | CC1CCN(c2cc(-n3cnc(C(=O)N4CCCC(C)C4)c3)ncn2)CC1 (stereo not given)
48.6 µM | Cc1nn(-c2cccc(F)c2)c2c1C(C(=O)c1ccc(Cl)s1)CC(=O)N2 (stereo not given)
21.8 µM | COc1ccc(-c2cc(-c3ccc(F)cc3)[nH]c(=O)c2C#N)cc1
8.65 µM | COC(=O)c1ccc2c(=O)n(CCCCCC(=O)NCCc3ccc(S(N)(=O)=O)cc3)c(=O)[nH]c2c1
1.48 µM | COc1cc(C)cc2c1C(=O)c1c(cc(O)c(Cl)c1O)C2=O
19.5 µM | N#Cc1c(Cl)cccc1Oc1ccc(S(=O)(=O)N2CCC(O)CC2)cc1
4.94 µM | Cc1cc2nc(/C=C/c3ccccc3)n(Cc3cccc(F)c3)c2cc1C
> 50 µM (inactive) | COc1ccc(C(=O)CSc2nnc(-c3cc4cccc(OC)c4o3)n2C)cc1OC

Structure (SMILES) | IC50
CC1Oc2cc3c(-c4c(O)cc(O)c5c(O)c6c(cc45)OC(C)C(C)C6=O)c(O)cc(O)c3c(O)c2C(=O)C1C (stereo not given) | 2.18 µM
